According to patent publication US11254663B2 (BRISTOL-MYERS SQUIBB COMPANY, priority 2019, dated 2022):
pEC50: −log10 of the molar value.

Target: FXR (Homo sapiens (Human), UniProt Q96RI1)
Test: transient human FXR/Gal4-luciferase reporter assay
Type: cell-based
Conditions: not given
Summary of the method: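 HEK293 cells stably carrying a 5×Gal4 response element–firefly luciferase reporter were transiently transfected overnight with a Gal4 DBD–human FXR LBD fusion plasmid. Compound was added in DMSO and cells were incubated overnight at 37 °C, 5% CO2. Activity was read as Steady-Glo luminescence.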

Chain of FXR (Q96RI1 262-486): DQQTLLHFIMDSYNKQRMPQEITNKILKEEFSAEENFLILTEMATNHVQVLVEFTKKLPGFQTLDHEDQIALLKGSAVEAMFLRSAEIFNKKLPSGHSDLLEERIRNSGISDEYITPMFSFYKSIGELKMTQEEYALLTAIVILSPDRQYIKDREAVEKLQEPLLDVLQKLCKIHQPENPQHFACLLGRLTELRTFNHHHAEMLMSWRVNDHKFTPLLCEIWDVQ

Row | SMILES | pEC50
1 | Cc1nc2ccc(-c3cccc(N(CC45CCC(c6nc(C7CC7)no6)(CC4)CC5)C(=O)C45CC(F)(C4)C5)c3)cc2s1 [Example 555, N-((4-(3-cyclopropyl-1,2,4-oxadiazol-5-yl)bicyclo[2.2.2]octan-1-yl)methyl)-3-fluoro-N-(3-(2-methylbenzo[d]thiazol-6-yl)phenyl)bicyclo[1.1.1]pentane-1-carboxamide] | 7.26
2 | CS(=O)(=O)Nc1ccc(-c2cccc(N(CC34CCC(c5nc(C(F)F)no5)(CC3)CC4)C(=O)C34CC(F)(C3)C4)c2)cc1 [Example 469, N-((4-(3-(difluoromethyl)-1,2,4-oxadiazol-5-yl)bicyclo[2.2.2]octan-1-yl)methyl)-3-fluoro-N-(4′-(methylsulfonamido)-[1,1′-biphenyl]-3-yl)bicyclo[1.1.1]pentane-1-carboxamide] | 6.18
3 | CCOc1ncc(-c2cccc(N(CC34CCC(c5noc(C6(C)COC6)n5)(CC3)CC4)C(=O)[C@H]3C[C@@](C)(O)C3)c2)cn1 [Example 519, (1S,3S)—N-(3-(2-ethoxypyrimidin-5-yl)phenyl)-3-hydroxy-3-methyl-N-((4-(5-(3-methyloxetan-3-yl)-1,2,4-oxadiazol-3-yl)bicyclo[2.2.2]octan-1-yl)methyl)cyclobutane-1-carboxamide] | 6.30

Same assay, conditions: Gal4-hFXR fusion construct, HEK293 reporter cells; response relative to 8 μM GW-4064

Row | SMILES | pEC50
4 | Cc1cnc(-c2cccc(N(CC34CCC(c5noc(C(C)(C)C)n5)(CC3)CC4)C(=O)C34CC(F)(C3)C4)c2)nc1 [Example 454, N-((4-(5-(tert-butyl)-1,2,4-oxadiazol-3-yl)bicyclo[2.2.2]octan-1-yl)methyl)-3-fluoro-N-(3-(5-methylpyrimidin-2-yl)phenyl)bicyclo[1.1.1]pentane-1-carboxamide] | 7.51
5 | CC(C)c1noc(C23CCC(CN(C(=O)C45CC(F)(C4)C5)c4cccc(-c5ccc(NS(C)(=O)=O)cc5)c4)(CC2)CC3)n1 [Example 376, 3-fluoro-N-((4-(3-isopropyl-1,2,4-oxadiazol-5-yl)bicyclo[2.2.2]octan-1-yl)methyl)-N-(4′-(methylsulfonamido)-[1,1′-biphenyl]-3-yl)bicyclo[1.1.1]pentane-1-carboxamide] | 7.49
6 | N#Cc1ccc(-c2cccc(N(CC34CCC(c5nc(C6CC6)no5)(CC3)CC4)C(=O)C34CC(F)(C3)C4)c2)nc1 [Example 297, N-(3-(5-cyanopyridin-2-yl)phenyl)-N-((4-(3-cyclopropyl-1,2,4-oxadiazol-5-yl)bicyclo[2.2.2]octan-1-yl)methyl)-3-fluorobicyclo[1.1.1]pentane-1-carboxamide] | 5.90
7 | CC(C)Oc1ccc(-c2cccc(N(CC34CCC(c5cc(C6(F)CC6)nn5C)(CC3)CC4)C(=O)OC(C)(C)C(F)(F)F)c2)cc1 [Example 655, 1,1,1-trifluoro-2-methylpropan-2-yl ((4-(3-(1-fluorocyclopropyl)-1-methyl-1H-pyrazol-5-yl)bicyclo[2.2.2]octan-1-yl)methyl)(4′-isopropoxy-[1,1′-biphenyl]-3-yl)carbamate] | 6.09
8 | O=C(N(CC12CCC(c3nc(C4CC4)no3)(CC1)CC2)c1cccc(-c2cc(Cl)cc(Cl)c2)c1)C12CC(F)(C1)C2 [Example 250, N-((4-(3-cyclopropyl-1,2,4-oxadiazol-5-yl)bicyclo[2.2.2]octan-1-yl)methyl)-N-(3′,5′-dichloro-[1,1′-biphenyl]-3-yl)-3-fluorobicyclo[1.1.1]pentane-1-carboxamide] | 6.11
9 | COc1nccc(-c2cccc(N(CC34CCC(c5nc(C6CC6)no5)(CC3)CC4)C(=O)C3CCC3)c2)n1 [Example 244, N-((4-(3-cyclopropyl-1,2,4-oxadiazol-5-yl)bicyclo[2.2.2]octan-1-yl)methyl)-N-(3-(2-methoxypyrimidin-4-yl)phenyl)cyclobutanecarboxamide] | 6.24
10 | CCOc1ncc(-c2cccc(N(CC34CCC(c5noc(C(F)F)n5)(CC3)CC4)C(=O)C34CC(F)(C3)C4)c2)cn1 [Example 459, N-((4-(5-(difluoromethyl)-1,2,4-oxadiazol-3-yl)bicyclo[2.2.2]octan-1-yl)methyl)-N-(3-(2-ethoxypyrimidin-5-yl)phenyl)-3-fluorobicyclo[1.1.1]pentane-1-carboxamide] | 6.72
11 | CCOc1ncc(-c2cccc(N(CC34CCC(c5cc(C6CC6)n(C)n5)(CC3)CC4)C(=O)C34CC(F)(C3)C4)c2)cn1 [Example 407, N-((4-(5-cyclopropyl-1-methyl-1H-pyrazol-3-yl)bicyclo[2.2.2]octan-1-yl)methyl)-N-(3-(2-ethoxypyrimidin-5-yl)phenyl)-3-fluorobicyclo[1.1.1]pentane-1-carboxamide] | 6.68
12 | Cc1cc(-c2cccc(N(CC34CCC(c5nc(C6CC6)no5)(CC3)CC4)C(=O)C34CC(F)(C3)C4)c2)cnc1F [Example 247, N-((4-(3-cyclopropyl-1,2,4-oxadiazol-5-yl)bicyclo[2.2.2]octan-1-yl)methyl)-3-fluoro-N-(3-(6-fluoro-5-methylpyridin-3-yl)phenyl)bicyclo[1.1.1]pentane-1-carboxamide] | 6.47
13 | CCOc1ccc(-c2cccc(N(CC34CCC(c5nc(C6CC6)no5)(CC3)CC4)C(=O)C34CC(F)(C3)C4)c2)nn1 [Example 283, N-((4-(3-cyclopropyl-1,2,4-oxadiazol-5-yl)bicyclo[2.2.2]octan-1-yl)methyl)-N-(3-(6-ethoxypyridazin-3-yl)phenyl)-3-fluorobicyclo[1.1.1]pentane-1-carboxamide] | 6.63
14 | COc1cc(-c2cccc(N(CC34CCC(c5nnc(C)s5)(CC3)CC4)C(=O)C3CCCC3)c2)ccn1 [Example 233, N-(3-(2-methoxypyridin-4-yl)phenyl)-N-((4-(5-methyl-1,3,4-thiadiazol-2-yl)bicyclo[2.2.2]octan-1-yl)methyl)cyclopentanecarboxamide] | 5.96
15 | CCOc1ccc(-c2cccc(N(CC34CCC(c5noc(C(C)(C)C)n5)(CC3)CC4)C(=O)C34CC(F)(C3)C4)c2)cc1 [Example 439, N-((4-(5-(tert-butyl)-1,2,4-oxadiazol-3-yl)bicyclo[2.2.2]octan-1-yl)methyl)-N-(4′-ethoxy-[1,1′-biphenyl]-3-yl)-3-fluorobicyclo[1.1.1]pentane-1-carboxamide] | 7.15
16 | CC(C)(C)NC(=O)N(CC12CCC(c3noc(C(F)(F)F)n3)(CC1)CC2)c1cccc(-c2ccc(C(C)(C)O)cc2)c1 [Example 611, 3-(tert-butyl)-1-(4′-(2-hydroxypropan-2-yl)-[1,1′-biphenyl]-3-yl)-1-((4-(5-(trifluoromethyl)-1,2,4-oxadiazol-3-yl)bicyclo[2.2.2]octan-1-yl)methyl) urea] | 7.39
17 | CCOc1ncc(-c2cncc(N(CC34CCC(c5nc(C6CC6)no5)(CC3)CC4)C(=O)C34CC(F)(C3)C4)c2)cn1 [Example 423, N-((4-(3-cyclopropyl-1,2,4-oxadiazol-5-yl)bicyclo[2.2.2]octan-1-yl)methyl)-N-(5-(2-ethoxypyrimidin-5-yl)pyridin-3-yl)-3-fluorobicyclo[1.1.1]pentane-1-carboxamide] | 6.62
18 | COc1ncc(-c2cccc(N(CC34CCC(c5ccc(C6(C#N)CC6)cc5)(CC3)OC4)C(=O)C34CC(F)(C3)C4)c2)cn1 [Example 351, N-((1-(4-(1-cyanocyclopropyl)phenyl)-2-oxabicyclo[2.2.2]octan-4-yl)methyl)-3-fluoro-N-(3-(2-methoxypyrimidin-5-yl)phenyl)bicyclo[1.1.1]pentane-1-carboxamide] | 6.58
